Source: patent US20230049619A1, “SIGMA-1 RECEPTOR LIGANDS AND USES THEREOF” (UNIVERSITE DE STRASBOURG, priority 2019, published 2023)

Tests used:
sigma-1 receptor = target: T1, sigma-1 receptor (Homo sapiens, UniProt Q99720); assay: sigma-1 receptor binding assay ([3H](+)-pentazocine displacement, Jurkat cell membranes); conditions: [3H](+)-pentazocine 15 nM, 37° C., 2 hours
T1 construct: incubing Jurkat cell membranes ([…] protein per tube) with [^3H](+)-pentazocine; endogenous in cells; host or cells: Jurkat cell membranes
T1 sequence (Q99720 whole entry): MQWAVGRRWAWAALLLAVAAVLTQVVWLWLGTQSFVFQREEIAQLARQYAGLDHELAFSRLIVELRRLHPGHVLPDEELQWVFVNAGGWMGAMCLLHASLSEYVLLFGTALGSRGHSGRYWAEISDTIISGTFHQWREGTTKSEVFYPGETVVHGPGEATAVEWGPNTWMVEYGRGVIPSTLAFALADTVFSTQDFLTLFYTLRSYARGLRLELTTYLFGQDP
Description: The sigma-1 receptor binding assays were performed according to Ganapathy et al. (J Pharmacol Exp Ther 28:251-60, 1999). The sigma-1 receptor binding assay was carried out by incubing Jurkat cell membranes ([…] protein per tube) with [^3H](+)-pentazocine a selective sigma-1 radiotracer (15 nM) and a range of concentration of tested compounds, at 37° C. for 2 hours in 5 mM tris/HCl buffer (pH=7.4). The inhibition of [^3H](+)-pentazocine binding assay is mainly used to determine the inhibition constant (Ki) of potential sigma-1 receptor ligands. These assays are performed with a single concentration of [^3H](+)-pentazocine at a concentration near its KD and increasing concentrations of non-radioactive ligands.

melting point: 144 °C
inhibition at 0.01 µM (sigma-1 receptor; tested compound 10 nM): 86%
inhibition at 0.1 µM (sigma-1 receptor; tested compound 100 nM): 90%
Compound: Cl.O=c1c(-c2ccccc2)cncn1C1CCN(Cc2ccccc2)CC1 [cpd 43, 3-(1-benzylpiperidin-4-yl)-5-phenylpyrimidin-4(3H)-one hydrochloride]
